Measurements from US20230310473A1, “METHOD FOR TREATING OBESITY AND/OR HYPERTENSION” (THE ROYAL INSTITUTION FOR THE ADVANCEMENT OF …, priority 2022, published 2023).

How the values were obtained:
[1] = High fat diet (HFD) obesity mouse model: body weight, body composition, blood glucose, lipid profile; assay type: in vivo, mice; details: for body weight: HFD-fed C57/b6 male mice, levan 250 mg/Kg by gavage, last 4 weeks of 12 weeks HFD
Description: (§1) Eight-week-old C57/b6 male mice (stock number 000664, Jackson Labs) were fed with a high fat diet (HFD) for 12 weeks in the presence and absence of levan having β-[2,6]-glycosidic linkages. More specifically, the mice were fed either standard diet (SD; 5.8% fat, 44.3% carbohydrate, 19.1% protein) or high fat (HFD; 60% fat, 20% carbohydrate, 20% protein) diet for 12 weeks. Levan having β-[2,6]-glycosidic linkages was administered by gavage (250 mg/Kg) for the last 4 weeks of HFD feeding for a subgroup of mice, the experimental group. Bodyweight, blood glucose, body composition, and lipid profile were determined. Vascular function and endothelial function markers were studied in aorta and mesenteric resistance arteries (MRA). Furthermore, body weight was measured weekly, lean and fat mass were measured by EchoMRl, blood glucose and lipid plasma levels were measured, and the thoracic aorta and mesenteric resistance arteries (MRA) were harvested and used for western blot, quantitative real time (qRT-) PCR and vascular reactivity using the wire myograph.
Results, reported as means ± standard error (SE), were analyzed using GraphPad Prism 9 (GraphPad Software, San Diego, CA). T-tests and one-way ANOVA were used to compare certain paired parameters. Unless specified otherwise, the values for p are *p<0.05; **p<0.01; ***p<0.001; and ****p<0.0001.

thoracic aorta = test: Vascular reactivity (wire myograph) of thoracic aorta from HFD obese mice; assay type: in vivo
Source text: FIG. 3A a graph showing the original traces for the harvesting of the thoracic aorta from mice C, HFD and EXP, and exposing the aortas to acetylcholine (Ach) in vitro using the wire myograph (cumulative doses of Ach after precontraction to phenylephrine).
FIG. 3B is a graph of the aorta relaxation percentage in function of the logarithm of the concentration of acetylcholine (endothelium dependent relaxation to Ach) for control mice (1), EXP mice (2) and HFD mice (3).
FIG. 3C is a graph of the aorta relaxation percentage in function of the logarithm of the concentration of sodium nitroprusside (SNP) (endothelium independent relaxation to SNP) for control mice (1), EXP mice (2) and HFD mice (3).
as §1

[2] = test system: mesenteric resistance arteries (MRA); test: Vascular reactivity (wire myograph) of mesenteric resistance arteries from HFD obese mice; assay type: in vivo
Source text: FIG. 4B is a graph of the mesenteric relaxation percentage in function of the logarithm of the concentration of acetylcholine (endothelium dependent relaxation to Ach) for control mice (1), EXP mice (2) and HFD mice (3).
FIG. 4C is a graph of the mesenteric relaxation percentage in function of the logarithm of the concentration of sodium nitroprusside (SNP) (endothelium independent relaxation to SNP) for control mice (1), EXP mice (2) and HFD mice (3).
as §1

[3] = test system: inflammation, oxidative stress and endoplasmic reticulum stress markers in thoracic aorta; test: Western blot and qRT-PCR markers in thoracic aorta of HFD obese mice; assay type: in vivo
Source text: FIG. 3D is a western blot of phospho-endothelial nitric oxide synthase (P-eNOS), […] endothelial nitric oxide synthase (T-eNOS), binding protein (BIP), C/EBP homologous protein (CHOP), tumor necrosis factor alpha (TNFα), P65 and glyceraldehyde-3-phosphate dehydrogenase (GAPDH), for the control mice, the HFD mice and the EXP mice.
FIG. 3W is a heat map showing all the markers in thoracic aorta from control mice and mice fed with HFD in the presence and absence of low levan β-[2,6]-glycosidic linkages treatment.
as §1

[4] = test system: inflammation, oxidative stress and endoplasmic reticulum stress markers in mesenteric arteries; test: Western blot markers in mesenteric arteries of HFD obese mice; assay type: in vivo
Source text: FIG. 4D is a western blot of P-eNOS, T-eNOS, BIP, CHOP, TNFα, P65 and GAPDH, in mesenteric arteries for the control mice, the HFD mice and the EXP mice.
as §1

[5] = test system: inflammation, oxidative stress and ER stress markers in proximal colon; test: mRNA markers in proximal colon of HFD obese mice; assay type: in vivo
Source text: FIG. 5L is a heat map showing all the markers in proximal colon from control mice and mice fed with HFD in the presence and absence of low levan β-[2,6]-glycosidic linkages treatment.
as §1

[6] = test system: inflammation, oxidative stress and ER stress markers in distal colon; test: mRNA markers in distal colon of HFD obese mice; assay type: in vivo
Source text: FIG. 6L is a heat map showing all the markers in distal colon from control mice and mice fed with HFD in the presence and absence of low levan β-[2,6]-glycosidic linkages treatment.
as §1

[7] = Liver function (ALT, ALP) in HFD obese mice; assay type: in vivo; details: mice with obesity; levan 250 mg/Kg gavage 4 weeks
[8] = Systolic blood pressure in angiotensin II hypertensive mice; assay type: in vivo; details: mice with hypertension (angiotensin II); vs angiotensin II without levan
Source text: FIG. 8A is a graph showing the systolic blood pressure (BP) in function of time for control mice administered vehicle (1), EXP mice administered angiotensin II and levan (2) and mice administered angiotensin II without levan (3).

aorta = test: Vascular contraction and relaxation of aorta from angiotensin II hypertensive mice; assay type: in vivo
Source text: FIG. 8C is a graph showing the aorta contraction percentage in response to the log of phenylephrine (PE) concentration for control mice administered vehicle (1), EXP mice administered angiotensin II and levan (2) and mice administered angiotensin II without levan (3).
FIG. 8D is a graph showing the aorta contraction percentage in response to the log of thromboxane A analog (TXA) concentration for control mice administered vehicle (1), EXP mice administered angiotensin II and levan (2) and mice administered angiotensin II without levan (3).
FIG. 8E is a graph showing the aorta contraction percentage in response to the log of angiotensin II (Ang II) concentration for control mice administered vehicle (1), EXP mice administered angiotensin II and levan (2) and mice administered angiotensin II without levan (3).
FIG. 8F is a graph showing the aorta relaxation percentage in function of the logarithm of the concentration of acetylcholine (endothelium dependent relaxation to Ach) for control mice administered vehicle (1), EXP mice administered angiotensin II and levan (2) and mice administered angiotensin II without levan (3).
FIG. 8G is a graph of the aorta relaxation percentage in function of the logarithm of the concentration of sodium nitroprusside (SNP) (endothelium independent relaxation to SNP) for control mice administered vehicle (1), EXP mice administered angiotensin II and levan (2) and mice administered angiotensin II without levan (3).

[9] = test system: inflammation, oxidative stress and endoplasmic reticulum stress markers in thoracic aorta; test: Western blot and mRNA markers in thoracic aorta of angiotensin II hypertensive mice; assay type: in vivo
Source text: FIG. 8H is a western blot of IP3R1,p-Protein kinase-like endoplasmic reticulum kinase (PERK), t-PERK, P-eNOS, T-eNOS, BIP, NOX1, TNFα, P65, cytochrome c and GAPDH, in thoracic aorta for control mice administered vehicle (CTL), EXP mice administered angiotensin II and levan (A+L), and mice administered angiotensin II without levan (ANG).

[10] = test system: inflammation, oxidative stress and ER stress markers in proximal colon; test: mRNA markers in proximal colon of angiotensin II hypertensive mice; assay type: in vivo
Source text: FIG. 9K is a heat map showing the markers in proximal colon from normotensive mice and hypertensive mice treated with and without low levan β-[2,6]-glycosidic linkages treatment.

[11] = test system: inflammation, oxidative stress and ER stress markers in distal colon; test: mRNA markers in distal colon of angiotensin II hypertensive mice; assay type: in vivo
Source text: FIG. 10K is a heat map showing the markers in distal colon from normotensive mice and hypertensive mice treated with and without low levan β-[2,6]-glycosidic linkages treatment.

[12] = Liver function (ALT, ALP) in angiotensin II hypertensive mice; assay type: in vivo
Source text: FIG. 11A is a graph showing the level of Alanine Aminotransferase/SGPT (ALT) in control mice administered vehicle, EXP mice administered angiotensin II and levan, and mice administered angiotensin II without levan.
FIG. 11B is a graph showing the level of alkaline phosphatase (ALP) in control mice administered vehicle, EXP mice administered angiotensin II and levan, and mice administered angiotensin II without levan.

[13] = HFD mice, levan 250 mg/Kg gavage 4 weeks, vs untreated HFD mice
[14] = mice with obesity, levan 250 mg/Kg gavage 4 weeks
[15] = obese mice, endothelium dependent relaxation after precontraction to phenylephrine
[16] = listed as low MW levan β-[2,6]-glycosidic linkages
[17] = listed as low molecular levan having β-[2,6]-glycosidic linkages

levan [low MW levan]
did not cause damage: damage to the liver function (ALT, ALP) [12]
significantly reduced: endoplasmic reticulum stress [3] | inflammation [3] | oxidative stress [3] | endoplasmic reticulum stress ([4]; listed as low levan) | inflammation ([4]; listed as low levan) | oxidative stress ([4]; listed as low levan) | endoplasmic reticulum stress [9] | inflammation [9] | oxidative stress [9]
improving: vascular relaxation (aorta; hypertensive mice, aorta)
not toxic: toxicity of the dose used [7] | toxicity of dose and treatment period [12]
reducing: exacerbated vascular contraction (aorta; hypertensive mice, aorta contraction to PE, TXA, Ang II)
significantly decreased: fat mass % ([1]; HFD mice, levan 250 mg/Kg gavage 4 weeks, EchoMRI, vs untreated HFD mice) | HDL [1, 13] | LDL [1, 13] | blood glucose [1, 13] | total cholesterol [1, 13] | triglyceride [1, 13]
increased: lean mass % ([1]; HFD mice, levan 250 mg/Kg gavage 4 weeks, EchoMRI, vs untreated HFD mice, listed as low MW levan β-[2,6]-glycosidic linkages)
decreased: body weight ([1]; vs untreated HFD mice, listed as low molecular weight levan having β-[2,6]-glycosidic linkages) | endoplasmic reticulum stress [3, 16] | inflammation [3, 16] | oxidative stress [3, 16] | endoplasmic reticulum stress [4, 16] | inflammation [4, 16] | oxidative stress [4, 16] | ER stress [5, 16] | inflammation [5, 16] | oxidative stress [5, 16] | ER stress [6, 16] | inflammation [6, 16] | oxidative stress [6, 16]
improved: lipid profile ([1]; HFD mice with obesity, levan 250 mg/Kg gavage 4 weeks) | vascular function in aorta (thoracic aorta; [14]) | vascular response to acetylcholine (Ach), aorta (thoracic aorta; [15]) | vascular function in mesenteric arteries [2, 14] | vascular response to acetylcholine (Ach), MRA [2, 15] | liver function (ALT, ALP) [7] | vascular function in the aorta (aorta; mice with hypertension (angiotensin II))
preserve: endothelial function of conductance artery (thoracic aortic) (thoracic aorta; [14]) | endothelial function of resistance arteries (mesenteric artery) [2, 14]
reduced: body weight ([1]; vs untreated HFD mice, listed as Low MW levan β-[2,6]-glycosidic linkages) | ER stress [5, 17] | inflammation [5, 17] | oxidative stress [5, 17] | ER stress [6, 17] | inflammation [6, 17] | oxidative stress [6, 17] | blood pressure [8] | ER stress [10] | inflammation [10] | oxidative stress [10] | ER stress [11] | inflammation [11] | oxidative stress [11]
significantly increased: lean mass % ([1]; HFD mice, levan 250 mg/Kg gavage 4 weeks, EchoMRI, vs untreated HFD mice, listed as low molecular weight levan having β-[2,6]-glycosidic linkages)
